Like-named read-outs stand apart in the source and are kept apart here.
Key:
[1] = target: T1, NS5B from the BK strain (genotype 1b) (Hepatitis C virus genotype 1b, UniProt P26663); assay: Hepatitis C polymerase inhibition, NS5B BK strain, 33P-GTP filter assay; assay type: biochemical; conditions: NS5B BK strain
T1 construct: NS5B from the BK strain (genotype 1b) is expressed in E. coli as a protein in which the 21 C-terminal amino acids are replaced; made in house; host or cells: E. coli
How it was run: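 E. coli-expressed NS5B (BK, genotype 1b) with the 21 C-terminal residues replaced by a linker-His6 tag was preincubated with compound for 15 min at room temperature. It then extended a hairpin-primed heteropolymeric RNA (~3 nM, ~760 nt product) with α-[33P]-GTP for 2 h at 22–25° C. The reaction was stopped with EDTA, and incorporated label was counted on filters.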

[2] = target: BB7 (RNA-dependent RNA polymerase hepatitis C virus protein sequence derived from HCV replicon) (Hepatitis C virus genotype 1b, UniProt Q9WMX2); assay: Hepatitis C polymerase inhibition, BB7 sequence; assay type: biochemical; conditions: Table 1B
Sequence of BB7 (RNA-dependent RNA polymerase hepatitis C virus protein sequence derived from HCV replicon) (Q9WMX2 2420-3010): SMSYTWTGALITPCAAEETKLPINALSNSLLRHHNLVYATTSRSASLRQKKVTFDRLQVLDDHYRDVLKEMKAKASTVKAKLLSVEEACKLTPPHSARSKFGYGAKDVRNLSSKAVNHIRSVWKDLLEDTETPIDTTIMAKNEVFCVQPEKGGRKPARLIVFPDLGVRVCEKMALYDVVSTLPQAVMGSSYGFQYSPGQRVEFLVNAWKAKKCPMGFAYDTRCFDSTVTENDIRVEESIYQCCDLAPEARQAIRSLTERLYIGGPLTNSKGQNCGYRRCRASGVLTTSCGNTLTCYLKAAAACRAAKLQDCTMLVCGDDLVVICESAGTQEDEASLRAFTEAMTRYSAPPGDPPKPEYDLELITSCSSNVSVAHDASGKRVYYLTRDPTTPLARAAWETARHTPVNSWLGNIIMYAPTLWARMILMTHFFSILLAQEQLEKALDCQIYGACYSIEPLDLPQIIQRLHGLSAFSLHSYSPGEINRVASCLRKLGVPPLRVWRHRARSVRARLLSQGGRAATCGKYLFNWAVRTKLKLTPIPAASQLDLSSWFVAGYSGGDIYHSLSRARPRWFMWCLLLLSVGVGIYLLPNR

T1 sequence (P26663 2420-2989): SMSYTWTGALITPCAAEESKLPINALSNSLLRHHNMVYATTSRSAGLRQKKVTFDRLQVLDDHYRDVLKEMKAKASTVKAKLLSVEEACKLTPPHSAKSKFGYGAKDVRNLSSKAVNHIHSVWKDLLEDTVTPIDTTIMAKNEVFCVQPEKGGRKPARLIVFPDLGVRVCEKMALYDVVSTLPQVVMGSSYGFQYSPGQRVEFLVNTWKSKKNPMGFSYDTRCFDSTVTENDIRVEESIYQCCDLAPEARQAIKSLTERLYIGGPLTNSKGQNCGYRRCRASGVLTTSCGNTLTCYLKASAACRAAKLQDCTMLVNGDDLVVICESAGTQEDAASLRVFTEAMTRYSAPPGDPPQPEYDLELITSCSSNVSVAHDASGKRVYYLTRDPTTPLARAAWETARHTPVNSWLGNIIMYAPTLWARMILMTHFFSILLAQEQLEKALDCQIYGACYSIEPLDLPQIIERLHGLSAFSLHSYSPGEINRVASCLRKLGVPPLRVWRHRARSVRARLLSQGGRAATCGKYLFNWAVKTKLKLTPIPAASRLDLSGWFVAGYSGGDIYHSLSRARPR

`CCCC1(CC(=O)O)OCCc2c1[nH]c1c(F)ccc(C(=O)N3CCOCC3)c21` (centres unmarked) [Example 225, [8-Fluoro-5-(morpholine-4-carbonyl)-1-propyl-1,3,4,9-tetrahydro-pyrano[3,4-b]indol-1-yl]-acetic Acid] gave a melting point of 98 to 100 °C and an IC50 ([1]; Table 1A, read-out: HCV pol BK IC50) greater than 20 µM.
Compound `CCCC1(CC(=O)O)OCCc2c1[nH]c1c(C)c(C(=O)O)cc(C#N)c21` (centres unmarked) [Example 353, 1-carboxymethyl-5-cyano-8-methyl-1-propyl-1,3,4,9 tetrahydro-pyrano[3,4-b]indole-7-carboxylic acid] has an IC50 ([1]; Table 1B, read-out: BK IC50) of 2 µM and an IC50 [2] of 0.81 µM.
Compound `CCCC1(CC(=O)O)OCCc2c1[nH]c1c(C)c(OC)cc(C#N)c21` (centres unmarked) [Example 363, (5-cyano-7-methoxy-8-methyl-1-propyl-1,3,4,9-tetrahydro-pyrano[3,4-b]indol-1-yl)-acetic acid] has an IC50 ([1]; Table 1B, read-out: BK IC50) of 0.36 µM and an IC50 [2] of 0.13 µM.
With `Cc1ccc(C(F)(F)F)c2c3c([nH]c12)C(CC(=O)O)(C1CCC1)OCC3` (centres unmarked) [Example 275, (1-cyclobutyl-8-methyl-5-trifluoromethyl-1,3,4,9-tetrahydropyrano[3,4-b]indol-1-yl)acetic acid] the IC50 ([1]; Table 1B, read-out: BK IC50) was 1.2 µM and the IC50 [2] was 3.5 µM.
`CCCC1(CC(=O)O)OCCc2c1[nH]c1c(C)c(OCCCF)cc(C#N)c21` (centres unmarked) [Example 370, [5-cyano-7-(3-fluoro-propoxy)-8-methyl-1-propyl-1,3,4,9-tetrahydro-pyrano[3,4-b]indol-1-yl]acetic acid] gave an IC50 ([1]; Table 1B, read-out: BK IC50) of 0.04 µM and an IC50 [2] of 0.03 µM.
In the case of `CCCC1(CC(=O)O)OCCc2c1[nH]c1c(Cl)ccc(C)c21` (centres unmarked) [Example 262, (8-chloro-5-methyl-1-propyl-1,3,4,9-tetrahydropyrano[3,4-b]indol-1-yl)acetic acid], the IC50 ([1]; Table 1B, read-out: BK IC50) is reported as 2.7 µM and the IC50 [2] is reported as 8.3 µM.
`CCC(C)C1(CC(=O)O)OCCc2c1[nH]c1c(F)ccc(C#N)c21` (racemic) [Example 314, (1R*,10S)-[5-cyano-8-fluoro-1-(1-methylpropyl)-1,3,4,9-tetrahydropyrano[3,4-b]indol-1-yl]acetic acid] gave an IC50 ([1]; Table 1B, read-out: BK IC50) of 1.4 µM and an IC50 [2] of 3.1 µM.
Compound `CC[C@@H](C)[C@@]1(CC(=O)O)OCCc2c1[nH]c1c(F)ccc(C#N)c21` (single isomer, unassigned) [Example 312, (1R*,10R*)-[5-cyano-8-fluoro-1-(1-methylpropyl)-1,3,4,9-tetrahydropyrano[3,4-b]indol-1-yl]acetic acid] has an IC50 ([1]; Table 1B, read-out: BK IC50) of 16 µM and an IC50 [2] greater than 30 µM.
`CCCOc1cc(C#N)c2c3c([nH]c2c1C)[C@@](CCC)(CC(=O)O)OCC3` [Example 360, (1R)-(5-cyano-8-methyl-7-propoxy-1-propyl-1,3,4,9-tetrahydro-pyrano[3,4-b]indol-1-yl)-acetic acid] gave an IC50 ([1]; Table 1B, read-out: BK IC50) of 0.09 µM and an IC50 [2] of 0.04 µM.
In the case of `N#Cc1ccc(F)c2[nH]c3c(c12)CCOC3(CC(=O)O)C1CCCC1` (centres unmarked) [Example 308, (5-cyano-1-cyclopentyl-8-fluoro-1,3,4,9-tetrahydropyrano[3,4-b]indol-1-yl)acetic acid], the IC50 ([1]; Table 1B, read-out: BK IC50) is reported as greater than 30 µM and the IC50 [2] is reported as greater than 30 µM.
`O=C(O)CC1(C2CCCC2)OCCc2c1[nH]c1c(Cl)ccc(Cl)c21` (centres unmarked) [Example 254, (5,8-dichloro-1-cyclopentyl-1,3,4,9-tetrahydropyrano[3,4-b]indol-1-yl)acetic acid] gave an IC50 ([1]; Table 1B, read-out: BK IC50) of 3.3 µM and an IC50 [2] of 5.8 µM.
In the case of `CC[C@H](C)C1(CC(=O)O)OCCc2c1[nH]c1c(C)cc(F)c(C#N)c21` (mixture of isomers) [Example 318, (1R*,10S)-[5-cyano-6-fluoro-8-methyl-1-(1-methylpropyl)-1,3,4,9-tetrahydropyrano[3,4-b]indol-1-yl]acetic acid], the IC50 ([1]; Table 1B, read-out: BK IC50) is reported as 0.14 µM and the IC50 [2] is reported as 0.25 µM.
`O=C(O)CC1(C2CCC2)OCCc2c1[nH]c1c(Cl)ccc(C(F)(F)F)c21` (centres unmarked) [Example 267, (8-chloro-1-cyclobutyl-5-trifluoromethyl-1,3,4,9-tetrahydropyrano[3,4-b]indol-1-yl)acetic acid] showed an IC50 ([1]; Table 1B, read-out: BK IC50) of 0.66 µM and an IC50 [2] of 2.3 µM.
`C=CCCC1(C(=O)O)OCCc2c1[nH]c1c(F)ccc(C#N)c21` (centres unmarked) [Example 346, [1-(3-butenyl)-5-cyano-8-fluoro-1,3,4,9-tetrahydropyrano[3,4-b]indol-1-yl]carboxylic acid] gave an IC50 ([1]; Table 1B, read-out: BK IC50) of 6.1 µM and an IC50 [2] of 8 µM.
`CCCC1(CC(=O)O)OCCc2c1[nH]c1c(F)ccc(C(F)(F)F)c21` (centres unmarked) [Example 268, (8-fluoro-1-propyl-5-trifluoromethyl-1,3,4,9-tetrahydropyrano[3,4-b]indol-1-yl)acetic acid] showed an IC50 ([1]; Table 1B, read-out: BK IC50) of 4.6 µM and an IC50 [2] of 6.1 µM.
With `CCCC1(C(=O)O)OCCc2c1[nH]c1c(CC)ccc(C#N)c21` (centres unmarked) [Example 340, (5-cyano-8-ethyl-1-propyl-1,3,4,9-tetrahydropyrano[3,4-b]indol-1-yl)carboxylic acid] the IC50 ([1]; Table 1B, read-out: BK IC50) was greater than 30 µM and the IC50 [2] was greater than 28 µM.
Work on `COCCC1(CC(=O)O)OCCc2c1[nH]c1c(Cl)ccc(C(F)(F)F)c21` (centres unmarked) [Example 265, [8-chloro-1-(2-methoxyethyl)-5-trifluoromethyl-1,3,4,9-tetrahydropyrano[3,4-b]indol-1-yl]acetic acid] yielded an IC50 ([1]; Table 1B, read-out: BK IC50) of 20 µM and an IC50 [2] of 22 µM.
In the case of `Cc1ccc(C#N)c2c3c([nH]c12)[C@](CC(=O)O)(C1CCC1)OCC3` [Example 286, (1S)-(5-cyano-1-cyclobutyl-8-methyl-1,3,4,9-tetrahydropyrano[3,4-b]indol-1-yl)acetic acid], the IC50 ([1]; Table 1B, read-out: BK IC50) is reported as greater than 30 µM and the IC50 [2] is reported as greater than 30 µM.
Compound `Cc1ccc(C#N)c2c3c([nH]c12)C(CC(=O)O)(CC1CCCC1)OCC3` (centres unmarked) [Example 288, (5-cyano-1-cyclopentylmethyl-8-methyl-1,3,4,9-tetrahydropyrano[3,4-b]indol-1-yl)acetic acid] has an IC50 ([1]; Table 1B, read-out: BK IC50) of 22 µM and an IC50 [2] of 18 µM.
Work on `CC[C@H](C)[C@]1(CC(=O)O)OCCc2c1[nH]c1c(C)cc(F)c(C#N)c21` [Example 320, (1S,10S)-[5-cyano-6-fluoro-8-methyl-1-(1-methylpropyl)-1,3,4,9tetrahydropyrano[3,4-b]indol-1-yl]acetic acid] yielded an IC50 ([1]; Table 1B, read-out: BK IC50) of 2.9 µM and an IC50 [2] of 6 µM.
With `CCCC1(CC(=O)O)OCCc2c1[nH]c1c(C)c(C(=O)N(C)C)cc(C#N)c21` (centres unmarked) [Example 358, (5-cyano-8-methyl-7-dimethylcarbamoyl-1-propyl-1,3,4,9-tetrahydro-pyrano[3,4-b]indol-1-yl)-acetic acid] the IC50 ([1]; Table 1B, read-out: BK IC50) was 16 µM and the IC50 [2] was 20 µM.
`CC[C@@H](C)[C@@]1(C(=O)O)OCCc2c1[nH]c1c(C)ccc(C#N)c21` (racemic) [Example 336, (1R*,10R*)-[5-cyano-8-methyl-1-(1-methylpropyl)-1,3,4,9-tetrahydropyrano[3,4-b]indol-1-yl]carboxylic acid] gave an IC50 ([1]; Table 1B, read-out: BK IC50) of 4.7 µM and an IC50 [2] of 8.7 µM.

— US7217730B2, “Method for the use of pyranoindole derivatives to treat infection with Hepatitis C virus” (Wyeth, priority 2002, dated 2007)
